Key:
[1] = test system: cuprisone induced changes in the central nervous system of C57BL/6 mice (hydrocephalus); experiment: Cuprizone induced hydrocephalus determined with MRI (chamber/brain volume ratio); type: in vivo; conditions: cuprizone-treated mice, after 5 weeks of treatment, i.p.
Procedure: (§1) During the experiment C57BL/6 mice were kept in a standard environment, they were given tap water and ground mice feed ad libitum. The mice were taken care of according to ethical requirements relating to treatment of animals.
(§2) According to a previously described method [Journal of Neuroimmunology 92 (1998): 38-49], 7-8 week old C57BL/6 male mice were treated for 6 weeks per os with cuprizone (Sigma, Steinheim, Germany). The mice were divided into 5 groups with 8 mice in each group.
(§3) Oxidation of cuprizone was prevented by giving fresh feed to the mice every day. PARP inhibitors and/or Akt kinase activating agents were placed in physiological saline solution, filtered to sterility, and administered intraperitoneally in the proper dosage. […] Control animals were given i.p. an amount of sterile physiological solution corresponding to their bodymass.
(§4) It is known from the literature (NMR Biomed. 2005 Oct.; 18(6):395-403) that T1 and T2 MRI image intensity correlates with the degradation and regeneration of the myelin sheath in this model. Oedema and hydrocephalus registers as hyperintensity on the T2 image. For quantification of hydrocephalus MRI is more suitable than histology because during fixation and histological processing there is significant shrinkage and volume degradation (Exp. Neurology 118 (1992): 1-6). MRI micro image technique makes it possible to study the above changes in vivo for weeks.
(§5) After three weeks, the mice were placed into the NMR instrument in narcosis every week [5 mg/kg bodymass diazepam (Seduxen) and 90 mg/kg bodymass ketamine (Calypsol, Richter Gedeon Zrt., Budapest) intraperitoneally]. T1 and T2 images were acquired with Varian ^uNITYIINOVA NMR spectrometer from the bulbus olfactorius to the beginning of the spinal cord in transverse sections of 1 mm thickness. Signal intensity of a glass tube with 1 mm internal diameter, which was filled with 9:1 water-glycerin mixture, was used as outer control. The development and size of demyelinization was determined by comparing average signal intensity detected at the area of the corpus callosum with the average intensity of the outer control. Average signal intensity of the corpus callosum (CC) was determined by an expert who was blind to the experiment from the section 1 mm posterior to the bregma by manually marking the region of interest (ROI), i.e. the corpus callosum (CC). Intensity of ROI was normalized to the intensity of the control tube.
The development and the degree of hydrocephalus were quantified by calculating the chamber/brain volume ratio. The area of the chambers was outlined manually in each section, and the whole volume was calculated as the sum of the areas multiplied with the thickness of the sections (1 mm). The same method was used for the determination of the […].

[2] = test system: cuprisone induced changes in the central nervous system of C57BL/6 mice (corpus callosum demyelinization); experiment: Cuprizone induced demyelinization determined with MRI (CC/control tube intensity); type: in vivo; conditions: cuprizone-treated mice, after 5 weeks of treatment, i.p.
Procedure: as §1, §2, §3, §4, §5

[3] = test system: LPS induced septic shock in normal BALB/c mice; conditions: cited from earlier work
[4] = test system: MBP induced formation of EAE in PJSJL mice; conditions: cited from earlier work
[5] = Example 2, doxycycline 1 mg/kg, trans-resveratrol 0,4 mg/kg bodymass
[6] = Example 3, 4-HQ 20 mg/kg, trans-resveratrol 0,4 mg/kg bodymass
[7] = Example 4, Carb 2 mg/kg, trans-resveratrol 0.4 mg/kg bodymass
[8] = Example 1, doxycycline 1 mg/kg, estriol 0,4 mg/kg bodymass

Row | SMILES | Chamber/brain vol. ratio (hydrocephalus) [1, 5] | Chamber/brain vol. ratio (hydrocephalus) [1, 6] | Chamber/brain vol. ratio (hydrocephalus) [1, 7] | CC/control tube (demyelinization) [2, 5] | CC/control tube (demyelinization) [2, 6] | CC/control tube (demyelinization) [2, 7] | prevention of LPS induced septic shock [3] | MBP induced formation of EAE [4] | Chamber/brain vol. ratio (hydrocephalus) [1, 8] | CC/control tube (demyelinization) [2, 8]
1 | Oc1ccc(/C=C/c2cc(O)cc(O)c2)cc1 [resveratrol, trans-resveratrol] | 0.138 ± 0.017 | 0.138 ± 0.017 | 0.138 ± 0.017 | 1.3 ± 0.09 | 1.3 ± 0.09 | 1.3 ± 0.09 |  |  |  | 
2 | CN(C)CC(=O)Nc1ccc2[nH]c(=O)c3ccccc3c2c1.Cl [PJ-34, N-(6-oxo-5 ,6-dihydrophenanthridin-2-yl)-N,N-dimethylacetamide.HCl] |  |  |  |  |  |  | successful in preventing LPS induced septic shock | effectively decreased |  | 
3 | C[C@H]1c2cccc(O)c2C(=O)C2=C(O)[C@]3(O)C(=O)C(C(N)=O)=C(O)[C@@H](N(C)C)[C@@H]3[C@@H](O)[C@@H]21 [doxycycline] | 0.117 ± 0.02 |  |  | 1.2 ± 0.17 |  |  |  |  | 0.128 ± 0.012 | 1.1 ± 0.18
4 | C[C@]12CC[C@@H]3c4ccc(O)cc4CC[C@H]3[C@@H]1C[C@@H](O)[C@@H]2O [estriol] |  |  |  |  |  |  |  |  | 0.134 ± 0.02 | 1.2 ± 0.13
